The subject of one test is SpADH2. Nature of the test: Cofactor spectrum of syringyl alcohol oxidation (HPLC specific activity), WT. The test is classed as biochemical, Sphingobium sp. SYK-6. The procedure: Fig. 2 Cofactor spectrum of syringyl alcohol oxidation catalyzed by SpADH2. The darkness of the background color for each cofactor stands for the activity of SpADH2 utilizing various cofactors. (a) NAD(P) ^+ and NMN^+ are shown in purple background. (b) tsNCBs are shown in cyan background. The evaluation of cofactor spectrum of SpADH2 was carried out under following conditions: 50 mM PBS buffer (pH 7.5) and 30℃, with 1a (5 mM) as substrate and different cofactors (7.5 mM) as cofactor. For NAD(P)^+ and NMN^+, 0.05 µg SpADH2 was added, and for tsNCBs, 5 µg SpADH2 was added. The results were analyzed by HPLC after 1 h reaction
Specific activity of SpADH2 in cofactor spectrum study was determined by HPLC analysis. PBS (pH 7.5) buffer was pre-heated at 30°C for 15 min. For NAD(P)^+ and NMN^+, 0.05 µg SpADH2 was added to PBS buffer (100 µL). For tsNCBs, 5 µg SpADH2 was added. A final concentration of 7.5 mM cofactor was added to the reaction mixture. Finally, a final concentration of 5 mM substrate was added to start the reaction. The reactions were conducted at 30°C.
One unit of enzyme activity is defined as the amount of enzyme required to form 1 µmol 1b per minute at pH 7.5 and 30°C. Same reaction without cofactor was used as a blank control.

Test [1] deals with SpADH2 variant H43L. Nature of the test: Substrate kinetic assay, H43L. It is filed as biochemical, Sphingobium sp. SYK-6. The procedure: (§1) Specific activity of SpADH2 in substrate spectrum study was measured spectrophotometrically. PBS (pH 7.5) buffer was pre-heated at 30°C for 15 min. For NAD^+, 0.05 µg SpADH2 was added to the PBS buffer (100 µL), and a final concentration of 2 mM NAD^+ was added. For tsNCBs cofactor p-BANA^+, 5 µg SpADH2 and a final concentration of 7.5 mM p-BANA^+ was added. The mixture was carried out in a 96-well microplate, and a final concentration of 5 mM substrate was added to start the reaction. The microplate was incubated in 30°C for 1 h. Florescent probes (2-[2-(1,4-dihydro-1-methyl-3-quinolinyl)ethenyl]-1,3,3-trimethyl-3H-indolium) in a final concentration of 0.2 mM (100 µL) was added (Scheme S1), and the microplate was placed in a microplate reader immediately for measurement under 537 nm (Fomin et al. [2016]).
(§2) Kinetic analysis of SpADH2 and its variants were carried out following Michaelis-Menten equation or Michaelis-Menten excess substrate inhibition equation. For of the substrate kinetic assays, concentrations of cofactors were fixed at 5 mM for NAD^+ and 7.5 mM for p-BANA^+. For cofactor kinetic assays, the concentration of 1a was fixed at 5 mM.
(§3) Specific activity was determined spectrophotometrically as above except that gradient 1a (0−20 mM) or cofactor (0−35 mM) concentrations were applied.
(§4) Cofactor specificity ratio (CSR) represents the ratio of catalytic efficiency of p-BANA^+ to NAD^+ for each enzyme, and relative specificity (RS) stands for the CSR ratio of variants to WT (King et al. [2020]).

In test [2] the test system is SpADH2 variant H43L/A290I. The test is described as follows: Substrate kinetic assay, H43L/A290I. It is filed as biochemical, Sphingobium sp. SYK-6. The procedure: as §1, §2, §3, §4
The target of the next test is SpADH2 WT (Sphingobium sp. SYK-6, UniProt G2IIZ8). Nature of the test: Cofactor kinetic assay, WT. It is filed as biochemical. The procedure:
as §1, §2, §3, §4

Test [3] deals with SpADH2 variant A290I. Nature of the test: Cofactor kinetic assay, A290I. It is filed as biochemical, Sphingobium sp. SYK-6. As to the method:
as §1, §2, §3, §4

Test [4] concerns SpADH2 variant H43L. Nature of the test: Activity of variant in oxidation of syringyl alcohol with p-BANA^+ (Fig. 5), H43L. Conditions: cofactor p-BANA^+, substrate syringyl alcohol. The test is classed as biochemical, Sphingobium sp. SYK-6. As to the method: (§5) In the first round of screening, saturation mutagenesis was constructed for six positions (W114, T177, G172, G316, A47, and R227). […] Therefore, in the second round of mutagenesis, six additional sites within the 5 Å range of the cofactor ribose (H43, V202, T265, V288, G289, and A290) were selected for saturation mutagenesis screening (Fig. 6c and Fig. S6). Three beneficial mutations were identified. […] Subsequently, combinatorial mutagenesis was performed, resulting in 11 double variants and 3 triple variants.
(§6) Fig. 5 Relative activity of SpADH2 and its variants in oxidation of syringyl alcohol when utilizing p-BANA^+ as cofactor
(§7) In preliminary screening by spectrophotometric analysis, PBS (pH 7.5) buffer (50 µL) in a 96-well plate was pre-warmed at 30°C for 15 min, and a final concentration of 5 mM p-BANA^+ and 1 mM substrate syringyl alcohol were added, and 50 µL of crude enzyme were add to each well to start the reaction, with WT as control. The reaction mixture was incubated at 30°C for 1 h, followed by addition of fluorescent probes in a final concentration of 0.2 mM, and was subjected to determination under 537 nm as described above.

Test [5] has as its system SpADH2 variant A290I. Nature of the test: Activity of variant in oxidation of syringyl alcohol with p-BANA^+ (Fig. 5), A290I. The test is classed as biochemical, Sphingobium sp. SYK-6. Conditions: cofactor p-BANA^+, substrate syringyl alcohol. As to the method: as §5, §6, §7
The mark [6] stands for this setting: 1a varied, cofactor (= label) fixed: 5 mM NAD^+ or 7.5 mM p-BANA^+.
[7] abbreviates: substrate kinetics, cofactor = label.
[8] abbreviates: cofactor (= label) varied, 1a fixed at 5 mM.
The mark [9] stands for this setting: cofactor (= label) varied, 1a fixed at 5 mM, read-out: Ki (cofactor inhibition).
[10] abbreviates: cofactor kinetics, cofactor = label.

Results on one molecule are retold here after paper PMC12052742, “Engineering a newly identified alcohol dehydrogenase from Sphingobium Sp. for efficient utilization of nicotinamide cofactors biomimetics” (Bioresources and Bioprocessing, 2025).

The structures appear in SMILES notation.

For orientation: Ki means a dissociation constant, usually derived from enzyme kinetics or from competition with a known ligand. The term Km denotes the concentration of substrate that gives half-maximal velocity.

SpADH2 WT, sequence (G2IIZ8 1-372): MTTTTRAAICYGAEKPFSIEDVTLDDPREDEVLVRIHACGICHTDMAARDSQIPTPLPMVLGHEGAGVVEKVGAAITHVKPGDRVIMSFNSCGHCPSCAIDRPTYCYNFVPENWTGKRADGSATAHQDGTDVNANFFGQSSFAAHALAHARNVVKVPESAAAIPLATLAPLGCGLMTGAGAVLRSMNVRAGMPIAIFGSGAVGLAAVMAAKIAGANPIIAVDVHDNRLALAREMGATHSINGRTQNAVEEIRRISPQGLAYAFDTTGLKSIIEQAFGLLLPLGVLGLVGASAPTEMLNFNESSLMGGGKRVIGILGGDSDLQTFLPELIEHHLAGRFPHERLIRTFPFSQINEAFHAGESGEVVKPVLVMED

Consider `NC(=O)c1ccc[n+](Cc2ccc(C(=O)O)cc2)c1` [p-BANA^+, para-3-carbamoyl-1-(4-carboxybenzyl)pyridin-1-ium], for which the “activity of SpADH2 with the tsNCB as cofactor” value in the test on SpADH2 (1a 5 mM, cofactor 7.5 mM, pH 7.5, 30℃, 5 µg SpADH2, 1 h) is on record as 11.55 U/g. The “fold increasement of activity compared with preliminary assay” value with SpADH2 (optimized conditions vs preliminary assay) is recorded as 7.1 fold. Also, the kcat was 2.5 ± 0.9 min^− 1 with SpADH2 variant H43L [1] (setting [6]), 6.8 ± 1.6 min^− 1 in test [2] (setting [6]), 1.6 ± 0.5 min^− 1 at SpADH2 WT (setting [8]) and 13 ± 2.5 min^− 1 in the test on SpADH2 variant A290I [3] (setting [8]). Also, the “Cofactor specificity ratio (catalytic efficiency of p-BANA^+ to NAD^+)” value in the test on SpADH2 variant H43L [1] (substrate kinetics) is recorded as 9.30×10^-4; in test [2] (substrate kinetics), 0.1026; on SpADH2 WT (cofactor kinetics) it was 3.81×10^-5; with SpADH2 variant A290I [3] (cofactor kinetics), 2.96×10^-4. Moreover, the “Relative specificity (CSR ratio of variant to WT)” value in the test with SpADH2 variant H43L [1] (substrate kinetics) stood at 61.2; in test [2] (substrate kinetics, in text as fold improvement in CSR) it was 6750; in the test on SpADH2 variant A290I [3] (cofactor kinetics) it was 7.77. Further, the “fold increase in kcat vs WT” value amounted to 2 fold with SpADH2 variant H43L [1] (setting [7]) and 6 fold in test [2] (setting [7]). Moreover, the “reduce in Km value vs WT” value in test [2] (setting [7]) was 30%. Besides, the Ki at SpADH2 WT (setting [9]) amounted to 12 ± 4.7 mM; at SpADH2 variant A290I [3] (setting [9]) it was 18 ± 5.8 mM. Moreover, in the test on SpADH2 variant A290I [3] (cofactor (= label) varied, 1a fixed at 5 mM, pH 7.5, 30°C), the Michaelis constant (Km) amounted to 14 ± 3.8 mM. The “fold higher catalytic efficiency (kcat/Km) than WT” value in the test with SpADH2 variant A290I [3] (setting [10]) stood at 10 fold. Besides, the “fold increase in kcat value vs WT” value with SpADH2 variant A290I [3] (setting [10]) is 7.9 fold. The “fold increase in activity vs WT” value is 2 fold in the test with SpADH2 variant H43L [4] and 10 fold in the test on SpADH2 variant A290I [5].
